Test results from ChEMBL document CHEMBL5726472, “Oxazolidin-2-one-pyrimidine derivatives and the use thereof as phosphatidylinositol-3-kinase inhibitors” (2019).

How the values were obtained:
[1] = (§1) AlphaScreen (Amplified Luminescent Proximity Homogeneous Assay, ALPHA, Perkin Elmer) is a non-radioactive bead-based proximity assay technology to study biomolecular interactions in a homogenous microtiter plate format. The brand name SureFire denotes AlphaScreen assays that are adapted to quantify the phosphorylation of endogenous cellular proteins in cell lysates, by using matched antibody pairs, which consist of an anti-phospho-kinase and an anti-kinase antibody. The assay allows characterization of kinase signaling in cells as well as measurement of kinase inhibitor effects. The AlphaScreen technology provides several advantages over standard assay techniques such as ELISA, as it avoids time-consuming washing procedures and reduces plate handling. Furthermore, it is miniaturizable at least to a 384-well format and provides sensitivity down to the femtomolar range, dependent on the affinity of the antibodies included in the individual AlphaScreen SureFire assay kit. High sensitivity is reached by an intrinsic amplification mechanism, which involves production of singlet oxygen molecules. SureFire assay kits are commercially available for specific targets and include pairs of validated antibodies (PerkinElmer). This report describes common procedures applied for AlphaScreen SureFire assays and respective semi-automated steps for routine kinase inhibitor profiling in cell-based assays.The Rat-1 cell lines stably overexpressing activated PI3K class I isoforms Rat-1 pBABEpuro Myr-HA-hp110 delta (Rat-1_PI3Kdelta) and Rat-1 pBABEpuro Myr-HA-hp110alpha (Rat-1_PI3Kalpha) and Rat-1 pBABEpuro Myr-HA-hp110 beta (Rat-1_PI3beta) were prepared as described (Maira S M, Stauffer F, Brueggen J, Furet P, Schnell C, Fritsch C, Brachmann S, Chène P, de Pover A, Schoemaker K, Fabbro D, Gabriel D, Simonen M, Murphy L, Finan P, Sellers W, Garcia-Echeverria C (2008), Mol Cancer Ther. 7:1851-63 and Maira S M, Pecchi S, Brueggen J, Huh K, Schnell C, Fritsch C, Nagel T, Wiesmann M, Brachmann S, Dorsch M, Chène P, Schoemaker K, De Pover A, Menezes D, Fabbro D, Sellers W, Garcia-Echeverria C, Voliva CF (2011), Mol. Cancer Ther., accepted). All cell lines were cultivated in complete growth medium (DMEM high glucose, 10% (v/v) fetal bovine serum, 1% (v/v) MEM NEAA, 10 mM HEPES, 2 mM L-glutamine, puromycin (10 μg/mL for Rat-1_PI3Kdelta and Rat-1_PI3Kalpha, 4 ug/mL for Rat-1_PI3beta), 1% (v/v) Pen/Strep) to 90% confluency at 37° C./5% CO2/90% humidity in a humidified CO2 incubator and were split twice a week.The following materials were used for p-AKT(5473) detection in Rat-1 cell lysates: Dulbecco's modified Eagle's medium (DMEM) high glucose (Gibco Invitrogen, Basel, Switzerland, Cat. No. 41965), Heat Inactivated Fetal Bovine Serum, Qualified (HI FBS; Gibco Invitrogen, Basel, Switzerland, Lot. No. 16140), MEM non essential amino acids (NEAA; Gibco Invitrogen, Basel, Switzerland, Cat. No. 11140), HEPES (Gibco Invitrogen, Basel, Switzerland, Cat. No. 15630), Penicillin/Streptomycin (Pen/Strep, 100x; Gibco Invitrogen, Basel, Switzerland, Cat. No. 15140-122), L-Glutamine (Gibco Invitrogen, Basel, Switzerland, Cat. No. 25030), Puromycin (Sigma Aldrich, Buchs, Switzerland, Cat. No. P9620), DMSO (MERCK, Dietikon, Switzerland, Cat. No. 8.02912.2500), H2O, MilliQ-H2O unless otherwise stated (MILLIPORE QGARDOOR1, Millipore, Zug, Switzerland), Bovine serum albumine (BSA; Sigma Aldrich, Buchs, Switzerland Cat. No. A8412), SureFire p-Akt ½ (Ser473) Assay Kit (PerkinElmer, Schwerzenbach, Switzerland, Cat. No. TGRAS50K).The p-Akt(5473) SureFire assay measures the phosphorylation of endogenous cellular Akt ½ at Ser473 in cell lysates. Using Rat-1 cells stably expressing myr-HA-tagged versions of the human PI3Kdelta, PI3Kalpha, or PI3Kbeta p110 catalytic subunit isoforms, the assay was developed as a two-plate protocol in a 384-well format. For compound testing, the cells were seeded at a density of 4000 (Rat-1_PI3Kdelta), 7500 (Rat-1_PI3Kalpha).
[2] = as §1, with “No. 16140), MEM non essential amino acids (NEAA; Gibco Invitrogen, Basel, Switzerland, Cat. No. 11140), HEPES (Gibco Invitrogen, Basel, Switzerland, Cat. No. 15630), Penicillin/Streptomycin (Pen/Strep, 100x; Gibco Invitrogen, Basel, Switzerland, Cat. No. 15140-122), L-Glutamine (Gibco Invitrogen, Basel, Switzerland, Cat. No. 25030), Puromycin (Sigma Aldrich, Buchs, Switzerland, Cat. No. P9620), DMSO (MERCK, Dietikon, Switzerland, Cat. No. 8.02912.2500), H2O, MilliQ-H2O unless otherwise stated (MILLIPORE QGARDOOR1, Millipore, Zug, Switzerland), Bovine serum albumine (BSA; Sigma Aldrich, Buchs, Switzerland Cat. No. A8412), SureFire p-Akt ½ (Ser473) Assay Kit (PerkinElmer, Schwerzenbach, Switzerland, Cat. No. TGRAS50K).The p-Akt(5473) SureFire assay measures the phosphorylation of endogenous cellular Akt ½ at Ser473 in cell lysates. Using Rat-1 cells stably expressing myr-HA-tagged versions of the human PI3Kdelta, PI3Kalpha, or PI3Kbeta p110 catalytic subunit isoforms, the assay was developed as a two-plate protocol in a 384-well format. For compound testing, the cells were seeded at a density of 4000 (Rat-1_PI3Kdelta), 7500 (Rat-1_PI3Kalpha).” left out

SMILES	IC50 [1]	IC50 [2]
Nc1ncc(-c2cc(N3CCN(c4ccccc4)C3=O)nc(N3CCOCC3)n2)c(C(F)(F)F)n1	1580 nM	1470 nM
Nc1ncc(-c2cc(N3CCOC(c4ccccc4)C3)nc(N3CCOCC3)n2)c(C(F)(F)F)n1 (stereo unspecified)	> 10000 nM	–
Nc1ncc(-c2cc(N3C(=O)O[C@@H](c4ccc(OCCO)cc4)[C@@H]3CO)nc(N3CCOCC3)n2)c(C(F)(F)F)n1	< 3 nM	< 3 nM
Nc1ncc(-c2cc(N3CCOCC3)nc(N3CCOCC3)n2)c(C(F)(F)F)n1	156 nM	139 nM
Nc1ncc(-c2cc(N3CCC(=O)CC3)nc(N3CCOCC3)n2)c(C(F)(F)F)n1	5310 nM	6540 nM
Nc1ncc(-c2cc(N3CCCCC3=O)nc(N3CCOCC3)n2)c(C(F)(F)F)n1	1540 nM	1040 nM
